Data on one compound can be found in PubChem BioAssay AID1035473 (Broad Institute, 2014).

Each structure is given as a SMILES string.

The experiment concerns A549 viability, CellTiter-Glo ATP luminescence, 72 h. As to the kind of experiment: A549 cell cytotoxicity, dose response, cytotoxicity control, dry powder samples (AID 1035473).

A word on the AC50: it is the concentration giving half of the maximal activity seen. Turning to `Cn1c(NC(=O)c2ccccc2)nc2c3cnccc3ccc21`, the AC50 was 83.9 µM.
